{"source": "patent US12673019B2", "about": "“Skin care composition” (Conopco, Inc., priority 2021, dated 2026)", "system": "interleukin (IL)-6", "test": "Human immune cell line THP-1 in vitro assay: IL-6 in supernatant of LPS-treated differentiated THP1-XBlue cells (ELISA)", "type": "cell-based", "settings": "differentiated THP1-XBlue cells co-treated with E. coli LPS and composition, 24 hours; percentage to LPS-treated cells = 100%; three repeats", "description": "Human Immune Cell Line THP-1 In Vitro Assay The following procedure was used to determine the anti-inflammation efficacy: THP1-XBlue™ (Cat No. thpx-sp, InvivoGen, San Diego, CA) cells were cultured as suspension in RPMI 1640 medium supplemented with 10% fetal bovine serum (FBS), penicillin (10 U/mL)-streptomycin (10 μg/mL) (Cat No. 15140122, Invitrogen, Carlsbad, CA). Cells were differentiated in 24-well plates at the density of 5×10^5 cells/well with 100 nM phorbol-12-myristate-13-acetate for 72 hours. Cells were then co-treated with pure E. coli lipopolysaccharides (LPS, Cat No. L2630, Sigma-Aldrich) and various compositions in Table 1. […] Expression of IL-6 was calculated as the percentage to LPS-treated cells which was designated as 100%. P value was analysed by Student's t-test comparing combination groups and individual compound groups (expression of IL-6, three repeats for each group).", "data": [{"compound": "CCCCCCC(O)CCCCCCCCCCC(=O)O", "note": "(stereo not shown) [B, 12-hydroxystearic acid]", "values": [{"measurement": "Expression of IL-6 (%)", "value": 84.4, "unit": "%"}]}]}
